Here are results for 16 compounds from patent US20250122225A1, “MASP-2 INHIBITORS AND METHODS OF USE” (Omeros Corporation, priority 2023, published 2025).

Holding throughout (type): biochemical
The target in one assay is T1, MASP-2 (CCP1-CCP2-SP) (Homo sapiens, UniProt O00187).
T1 construct: 15 μL of Enzyme MASP-2 (CCP1-CCP2-SP) in Assay Buffer
In words: Enzymatic assay for MASP-2 inhibitory activity (fluorogenic substrate). In short, it runs like this: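 MASP-2 (CCP1-CCP2-SP) cleaved a fluorogenic substrate based on the C2 cleavage site in 20 mM HEPES pH 7.4, 140 mM NaCl, 0.1% Tween 20 at room temperature. After 20 min the reaction was stopped with 0.1 M acetic acid and fluorescence read. % activity was normalized to DMSO-only and no-enzyme controls; IC50 taken as Ki.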

The test system of assay [1] is Lectin Pathway Activation in human serum. Put plainly: Lectin Pathway Activation (LPA) assay in human serum, mannan-coated ELISA plate, C4c detection. Particulars: 1% human serum, read-out: LPA Functional Activity (IC50). Here is the method:
Lectin Pathway Activation (LPA) Assay in Human Serum Treated with Compounds
A microtiter ELISA plate was coated with mannan (1 mg/ml) from Saccharomyces cerevisiae (Sigma-Aldrich®, M7504) overnight at 4° C. in coating buffer [33.3 mM Na2CO3, 166.67 mM NaHCO3]. The plate was blocked with 5% bovine serum albumin (BSA) (Sigma-Aldrich®, A3294) in 1×PBST [Phosphate Buffered Saline Solution (1.06 mM KH2PO4, 155.2 mM NaCl, 2.97 mM Na2HPO4^−·7H2O, pH 7.4), 0.05% Tween-20] shaking for 2 hours at room temperature. 1% human serum was incubated with serial dilutions of small compounds in 1× LPA+ Buffer [20 mM Hepes, pH 7.4, 140 mM NaCl, 2 mM MgCl2 (6H2O)] and incubated for 5 minutes at room temperature. 40 μL of this mixture was then added to the plate, and the plate was incubated at room temperature for 55 mins. Next, the reaction was stopped by adding 20 μL of EDTA Stop Solution [20 mM Hepes, pH7.4, 140 mM NaCl, 150 mM EDTA] to the plate. The plate was then washed 10× in wash buffer 1×PBST; 40 μL of Rabbit Anti Human C4c Antibody [Dako®, Q0369] diluted 1:20000 in wash buffer was added; and the plate was incubated shaking at room temperature for 30 minutes. The plate was washed [5× times]; 40 μL of Goat Anti-rabbit Antibody-HRP Conjugate [Southern Biotech®, 4050-05] diluted 1:10000 in wash buffer was added; and the plate was incubated shaking at room temperature for 30 minutes. After that, the plate was washed five times; 40 µL/well of Amplex® UltraRed Substrate Solution [1× LPA Buffer, 10 mM Amplex® UltraRed Stock Solution [Thermo Fisher Sci.®, A36006], 3% stabilized hydrogen peroxide [Sigma Aldrich®, 216763] was added; the plate was incubated at room temperature for 16 minutes; the reaction was stopped by adding 8 µL/well of Amplex® UltraRed Stop Solution [Thermo Fisher Sci.®, A33855] in 100% EtOH. Finally, the plate was read for fluorescence at Ex: 550 nm, Em: 580 nm on the i3x Microplate Reader.

A further assay has as its target T2, human α-thrombin (Homo sapiens, UniProt P00734).
T2 construct: enzyme (human α-thrombin (BioPharm® Lab.)) in assay buffer; purchased BioPharm® Lab
In words: Enzymatic assay for thrombin (fluorogenic peptide substrate Boc-VPR-AMC). The gist of the method:
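Human α-thrombin was run with the fluorogenic substrate Boc-VPR-AMC in 20 mM Hepes pH 7.4, 140 mM NaCl, 0.1% Tween 20 at room temperature for 20 min, then stopped with 0.1 M acetic acid. % activity was normalized to DMSO and no-enzyme controls. Under linear conditions IC50 equalled Ki, except for tight-binding inhibitors.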

Where a name gives a salt, the structure may show the parent alone.

T1 sequence (O00187 445-686 limits assumed): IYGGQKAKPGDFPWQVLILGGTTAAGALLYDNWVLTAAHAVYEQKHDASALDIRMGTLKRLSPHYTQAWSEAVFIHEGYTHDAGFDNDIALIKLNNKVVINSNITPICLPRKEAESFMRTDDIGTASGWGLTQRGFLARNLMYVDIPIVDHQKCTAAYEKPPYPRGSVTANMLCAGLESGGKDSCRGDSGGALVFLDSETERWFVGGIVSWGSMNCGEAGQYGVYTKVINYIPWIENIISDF
T1 sequence (O00187 287-444 partner limits assumed): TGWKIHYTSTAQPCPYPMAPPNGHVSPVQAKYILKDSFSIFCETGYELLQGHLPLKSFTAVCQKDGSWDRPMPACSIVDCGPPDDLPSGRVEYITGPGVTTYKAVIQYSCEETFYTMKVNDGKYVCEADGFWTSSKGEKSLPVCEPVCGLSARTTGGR

As for `Cc1ccc(CNc2nc(Cl)c3n(c2=O)[C@H](C(=O)NCc2ccc(N)nc2C)CC3)cc1C` [Compound 27, (S)-N-((6-amino-2-methylpyridin-3-yl)methyl)-1-chloro-3-((3,4-dimethylbenzyl)amino)-4-oxo-4,6,7,8-tetrahydropyrrolo[1,2-a]pyrazine-6-carboxamide trifluoroacetate], the Ki – broadly, the equilibrium dissociation constant of an inhibitor or competing ligand from its target – is below 500 nM on MASP-2 (CCP1-CCP2-SP) and 2500 to 10000 nM on human α-thrombin. Besides, in assay [1], the IC50 (in general, the concentration that gives 50% inhibition) is below 50 nM.
For `Cc1cc(C)cc(CNc2ncc3n(c2=O)[C@H](C(=O)NCc2cc4cnccc4n2C)CC3)c1` [Compound 41, (S)-3-((3,5-dimethylbenzyl)amino)-N-((1-methyl-1H-pyrrolo[3,2-c]pyridin-2-yl)methyl)-4-oxo-4,6,7,8-tetrahydropyrrolo[1,2-a]pyrazine-6-carboxamide trifluoroacetate], the Ki at MASP-2 (CCP1-CCP2-SP) was below 500 nM; at human α-thrombin, 500 to 2500 nM. In addition, the IC50 in assay [1] is below 50 nM.
With `COc1cc(C)cc(CNc2ncc3n(c2=O)[C@H](C(=O)NCc2cc4cnccc4[nH]2)CC3)c1` [Compound 48, (S)-N-((1H-pyrrolo[3,2-c]pyridin-2-yl)methyl)-3-((3-methoxy-5-methylbenzyl)amino)-4-oxo-4,6,7,8-tetrahydropyrrolo[1,2-a]pyrazine-6-carboxamide], the Ki at MASP-2 (CCP1-CCP2-SP) and at human α-thrombin was below 500 nM each time. Besides, the IC50 in assay [1] is below 50 nM.
Take `Cc1cc(F)cc(CNc2ncc3n(c2=O)[C@H](C(=O)NCc2ccc(N)nc2C)CC3)c1` [Compound 69, (S)-N-((6-amino-2-methylpyridin-3-yl)methyl)-3-((3-fluoro-5-methylbenzyl)amino)-4-oxo-4,6,7,8-tetrahydropyrrolo[1,2-a]pyrazine-6-carboxamide]: the Ki at MASP-2 (CCP1-CCP2-SP) and on human α-thrombin was below 500 nM throughout. For the same compound, the IC50 in assay [1] was below 50 nM.
As to `Cc1cc(F)cc(CNc2ncc3n(c2=O)[C@H](C(=O)NCc2cc4cnc(C)cc4[nH]2)CC3)c1` [Compound 71, (S)-3-((3-fluoro-5-methylbenzyl)amino)-N-((6-methyl-1H-pyrrolo[3,2-c]pyridin-2-yl)methyl)-4-oxo-4,6,7,8-tetrahydropyrrolo[1,2-a]pyrazine-6-carboxamide], the Ki on MASP-2 (CCP1-CCP2-SP) was below 500 nM; at human α-thrombin it was 10000 to 25000 nM. Moreover, the IC50 in assay [1] is below 50 nM.
Consider `Cc1cc(C)cc([C@@H](CO)Nc2ncc3n(c2=O)[C@H](C(=O)NCc2cc4cnccc4[nH]2)CC3)c1` [Compound 75, (S)-N-((1H-pyrrolo[3,2-c]pyridin-2-yl)methyl)-3-(((S)-1-(3,5-dimethylphenyl)-2-hydroxyethyl)amino)-4-oxo-4,6,7,8-tetrahydropyrrolo[1,2-a]pyrazine-6-carboxamide], for which the Ki on MASP-2 (CCP1-CCP2-SP) and on human α-thrombin was below 500 nM in each case. Also, in assay [1], the IC50 is below 50 nM.
On to `Cc1ccc(F)c(CNc2ncc3n(c2=O)[C@H](C(=O)NCc2cc4cnccc4[nH]2)CC3)c1` [Compound 78, (S)-N-((1H-pyrrolo[3,2-c]pyridin-2-yl)methyl)-3-((2-fluoro-5-methylbenzyl)amino)-4-oxo-4,6,7,8-tetrahydropyrrolo[1,2-a]pyrazine-6-carboxamide], for which the Ki on MASP-2 (CCP1-CCP2-SP) and at human α-thrombin was below 500 nM each time. Besides, the IC50 in assay [1] was below 50 nM.
Take `Cc1cc(C)cc(CNc2ncc3n(c2=O)[C@H](C(=O)NCc2ccnc(N)c2)CC3)c1` [Compound 88, (S)-N-((2-aminopyridin-4-yl)methyl)-3-((3,5-dimethylbenzyl)amino)-4-oxo-4,6,7,8-tetrahydropyrrolo[1,2-a]pyrazine-6-carboxamide]: the inhibition constant Ki on MASP-2 (CCP1-CCP2-SP) and at human α-thrombin was below 500 nM in each case. In addition, the IC50 in assay [1] fell in the range of 50 to 500 nM.
With `O=C(NCc1cc2cnccc2[nH]1)[C@@H]1CCc2c(C3=CCOCC3)nc(NCc3ccccc3)c(=O)n21` [Compound 120, (S)—N-((1H-pyrrolo[3,2-c]pyridin-2-yl)methyl)-3-(benzylamino)-1-(3,6-dihydro-2H-pyran-4-yl)-4-oxo-4,6,7,8-tetrahydropyrrolo[1,2-a]pyrazine-6-carboxamide], the figures for the inhibition constant (Ki) at MASP-2 (CCP1-CCP2-SP) and on human α-thrombin were below 500 nM and above 25000 nM, respectively. Moreover, the IC50 in assay [1] was below 50 nM.
On the same counts, the results for `Cc1nc(N)ccc1CNC(=O)[C@@H]1CCc2c(Cl)nc(NCc3ccccc3)c(=O)n21` [Compound 131, (S)-N-((6-amino-2-methylpyridin-3-yl)methyl)-3-(benzylamino)-1-chloro-4-oxo-4,6,7,8-tetrahydropyrrolo[1,2-a]pyrazine-6-carboxamide] are below 500 nM, 500 to 2500 nM and below 50 nM.
As for `Cc1nc(N)ccc1CNC(=O)[C@@H]1C[C@H](Cc2ccccc2)c2cnc(NC3CCC3)c(=O)n21` [Compound 140, (6S,8S)-N-((6-amino-2-methylpyridin-3-yl)methyl)-8-benzyl-3-(cyclobutylamino)-4-oxo-4,6,7,8-tetrahydropyrrolo[1,2-a]pyrazine-6-carboxamide], the Ki on MASP-2 (CCP1-CCP2-SP) and at human α-thrombin was below 500 nM in each case. Also, the IC50 in assay [1] is below 50 nM.
In the case of `CC[C@H]1C[C@@H](C(=O)NCc2cc3cnccc3[nH]2)n2c1cnc(NCc1cc(C)cc(C)c1)c2=O` [Compound 155, (6S,8S)-N-((1H-pyrrolo[3,2-c]pyridin-2-yl)methyl)-3-((3,5-dimethylbenzyl)amino)-8-ethyl-4-oxo-4,6,7,8-tetrahydropyrrolo[1,2-a]pyrazine-6-carboxamide], the Ki on MASP-2 (CCP1-CCP2-SP) and at human α-thrombin was below 500 nM throughout. The IC50 in assay [1] is below 50 nM.
With `Cc1cc(F)cc(CNc2ncc3n(c2=O)[C@H](C(=O)NCc2ccc(CN)cc2)CC3)c1` [Compound 181, (S)—N-(4-(aminomethyl)benzyl)-3-((3-fluoro-5-methylbenzyl)amino)-4-oxo-4,6,7,8-tetrahydropyrrolo[1,2-a]pyrazine-6-carboxamide trifluoroacetate], the figures for the Ki at MASP-2 (CCP1-CCP2-SP) and at human α-thrombin were below 500 nM and 2500 to 10000 nM, respectively. Further, the IC50 in assay [1] was in the range of 50 to 500 nM.
For `COc1cc(C)cc(CNc2ncc3n(c2=O)[C@H](C(=O)N[C@H](C)c2ccc(N)nc2)CC3)c1` [Compound 194, (S)-N-((R)-1-(6-aminopyridin-3-yl)ethyl)-3-((3-methoxy-5-methylbenzyl)amino)-4-oxo-4,6,7,8-tetrahydropyrrolo[1,2-a]pyrazine-6-carboxamide trifluoroacetate], in that order: below 500 nM, 2500 to 10000 nM and below 50 nM.
As for `Cc1ccc(C(F)(F)F)cc1CNc1ncc2n(c1=O)[C@H](C(=O)N[C@H](C)c1ccc(N)nc1)CC2` [Compound 197, (S)-N-((R)-1-(6-aminopyridin-3-yl)ethyl)-3-((2-methyl-5-(trifluoromethyl)benzyl)amino)-4-oxo-4,6,7,8-tetrahydropyrrolo[1,2-a]pyrazine-6-carboxamide trifluoroacetate], the Ki at MASP-2 (CCP1-CCP2-SP) is below 500 nM; at human α-thrombin, above 25000 nM. Moreover, in assay [1], the IC50 was below 50 nM.
For the compound `Cc1ccccc1CNc1ncc2n(c1=O)[C@H](C(=O)NCc1cc3c(s1)CNC3)CC2` [Compound 286, trifluoroacetate], the Ki is below 500 nM at MASP-2 (CCP1-CCP2-SP) and 500 to 2500 nM on human α-thrombin.
